Measured values reported in patent US3987175A, “Derivatives of phenoxy isobutyric acid having hypolipemizing and hypocholesterolemizing action” (Pierre Fabre S.A., priority 1974, dated 1976).
Counter-ions that a name gives are not always drawn.

Columns and labels:
[1] = Acute test: cholesterol and triglycerides 4 hours after intraperitoneal administration; type: in vivo; details: rats
Experimental: The products to be studied were administered intraperitoneally to groups of identical rats; the doses were calculated on a basis of clofibrate in order to make the tests fully comparative. After a period of 4 hours, blood was removed by heart puncture and cholesterol and triglycerides determined.

[2] = Hypercholesterolemia induced by the administration of Triton WR 1339; type: in vivo; details: male rats; for Cholesterol % variation / Kunkel phenol % variation: Triton 200 mg/kg IV, 18 hours
Experimental: 3. […] Immediately after the injection, the products to be tested were administered IP and new samples of blood taken 18 hours later (at the maximum of the hypocholesterolemia produced by the Triton). |P being the biochemical parameter under consideration | p Triton + product p Triton + product | - | + 18 hours at the start |1 - × 100 | p Triton p Triton | - | + 18 hours at the start

[3] = Test covering 4 days of treatment by oral administration, normal diet (cholesterol, Kunkel's phenol test); type: in vivo; details: rats, fifth day
Text: 2. Test covering 4 days of treatment by oral administration. In a lot of 30 rats subjected to a normal diet, the blood samplings were effected and the determinations of cholesterol and lipoproteins (Kunkel's phenol test) were made on the fifth day.

[4] = Solubility characteristics; type: physicochemical
[5] = Acute toxicity, LD50 (method of Miller and Tainter, mortality observed for 4 days); details: mouse, in vivo, mice
Text: The above-described chemical compounds were submitted to toxicity tests. The acute toxicity of certain compounds determined by the 50% lethal dose is entered in the following Table:
The LD50 was studied in accordance with the method of Miller and Tainter, the mortality of mice being observed for 4 days.

[6] = IP, clofibrate 200 mg/kg, 4 hours
[7] = clofibrate 200 mg/kg IP, NS (not significant)
[8] = IP, nicotinic acid 140 mg/kg, 4 hours
[9] = nicotinic acid 100 mg/kg IP, HS (highly significant)
[10] = IP, F 1393 340 mg/kg, 4 hours (comparison with reference products)
[11] = acute dose study, 340 mg/kg, HS (highly significant)

CCOC(=O)C(C)(C)Oc1ccc(Cl)cc1 [Clofibrate]
Cholesterol % variation referred to the control [1, 6]: -17%
Triglycerides % variation referred to the control [1, 6]: +23%
Cholesterol % variation [2, 7]: -15%
Kunkel phenol % variation [2, 7]: -23%
Activity in the Triton test (in words) ([2]; Triton WR 1339): inactive
Cholesterol % variation referred to the control ([3]; clofibrate 200 mg/kg): -34%
Kunkel phenol test % variation referred to the control ([3]; clofibrate 200 mg/kg): -29%

O=C(O)c1cccnc1 [Nicotinic acid, nicotinic acid]
Cholesterol % variation referred to the control [1, 8]: -25%
Triglycerides % variation referred to the control [1, 8]: -47%
Cholesterol % variation [2, 9]: -67%
Kunkel phenol % variation [2, 9]: -75%
Cholesterol % variation referred to the control ([3]; nicotinic acid 100 mg/kg): -22%

CC(C)(Oc1ccc(Cl)cc1)C(=O)OCCNC(=O)c1cccnc1 [F 1393, Hydrochloride of N-nicotinoyl, O-(p-chloro phenoxy) isobutanoyl ethanol amine]
Cholesterol % variation referred to the control [1, 10]: -32%
Triglycerides % variation referred to the control [1, 10]: -43%
Triglycerides % variation referred to the control ([1]; acute dose study, 50 mg/kg, HS (highly significant)): -26%
Cholesterol % variation referred to the control ([1]; acute dose study, 50 mg/kg, NS (not significant)): -10%
Cholesterol % variation referred to the control ([1]; acute dose study, 100 mg/kg): -0%
Triglycerides % variation referred to the control ([1]; acute dose study, 100 mg/kg, HS (highly significant)): -29%
Cholesterol % variation referred to the control ([1]; acute dose study, 200 mg/kg, HS (highly significant)): -22%
Triglycerides % variation referred to the control ([1]; acute dose study, 200 mg/kg, S): -19%
Cholesterol % variation referred to the control [1, 11]: -35%
Triglycerides % variation referred to the control [1, 11]: -43%
Solubility in N-methyl pyrrolidone ([4]; N-methyl pyrrolidone): 16%
Solubility in ethanol [4]: 3.5%
Solubility in propylene glycol ([4]; propylene glycol): 5%
solubility ([4]; water): 120 mg/mL
Cholesterol % variation ([2]; F 1393 340 mg/kg IP, HS (highly significant)): -68%
Kunkel phenol % variation ([2]; F 1393 340 mg/kg IP, S): -89%
Cholesterol % variation referred to the control ([3]; F 1393 340 mg/kg): -44%
Kunkel phenol test % variation referred to the control ([3]; F 1393 340 mg/kg): -52%
LD50 at 96 h ([5]; po, by mouth): 3100 mg/kg
LD50 at 96 h ([5]; ip): 560 mg/kg

CC(C)(Oc1ccc(Cl)cc1)C(=O)OCCNC(=O)c1ccc[n+]([O-])c1 [F 1416, N-oxide of N-nicotinoyl, O-(parachloro phenoxy) isobutanoyl ethanol amine]
Solubility in ethanol [4]: 3%
Solubility in propylene alcohol ([4]; propylene alcohol): 1%
Solubility in water (in words) ([4]; water): Insoluble
LD50 at 96 h ([5]; po, by mouth): 2400 mg/kg
LD50 at 96 h ([5]; ip): ≥ 1000 mg/kg
